Measurements: patent US8906925B2, “Pyrido[4,3-B]indoles containing rigid moieties” (Medivation Technologies, Inc., priority 2008, dated 2014)
Like-named read-outs stand apart in the source and are kept apart here.

Legend:
[1] = target: T1, human recombinant adrenergic α2A receptor (Homo sapiens, UniProt P08913); assay: Adrenergic α2A radioligand binding ([3H]MK-912); settings: read-out: Inhibition of ligand binding, Adrenergic α2A
T1 construct: expressed in transfected cells; host or cells: insect Sf9 cells
T1 sequence (P08913 1-465): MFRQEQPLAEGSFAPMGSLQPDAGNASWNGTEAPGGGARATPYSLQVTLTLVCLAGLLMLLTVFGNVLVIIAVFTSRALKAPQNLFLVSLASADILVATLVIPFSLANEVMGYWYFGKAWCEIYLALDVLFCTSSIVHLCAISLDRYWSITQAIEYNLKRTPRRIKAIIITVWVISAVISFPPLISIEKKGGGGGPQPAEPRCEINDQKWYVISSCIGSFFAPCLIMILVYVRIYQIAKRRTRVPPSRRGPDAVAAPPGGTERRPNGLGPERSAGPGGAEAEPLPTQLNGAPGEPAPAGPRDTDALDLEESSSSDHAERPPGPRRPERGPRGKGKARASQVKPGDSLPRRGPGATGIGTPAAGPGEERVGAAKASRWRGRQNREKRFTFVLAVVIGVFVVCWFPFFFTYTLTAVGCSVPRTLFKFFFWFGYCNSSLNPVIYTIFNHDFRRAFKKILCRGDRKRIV
Protocol: To evaluate in radioligand binding assays the activity of compounds of the invention, human recombinant adrenergic α2A receptor expressed in insect Sf9 cells (Uhlen S et al. J Pharmacol Exp Ther. 271:1558, 1994) in a modified Tris-HCl buffer (50 mM Tris-HCl, pH 7.4, 12.5 mM MgCl2, 2 mM EDTA) was used. Compounds of invention were incubated with 1 nM [^3H]MK-912 for 60 min. at 25° C. MK912 is (2S-trans)-1,3,4,5′,6,6′,7,12b-octahydro-1′,3′-dimethyl-spiro[2H-benzofuro[2,3-a]quinolizine-2,4′(1′H)-pyrimidin]-2′(3′H)-one hydrochloride Non-specific binding was estimated in the presence of 10 μM WB-4101 (2-(2,6-Dimethoxyphenoxyethyl)aminomethyl-1,4-benzodioxane hydrochloride). Receptor proteins were filtered and washed, the filters were then counted to determine [^3H]MK-912 specifically bound. Compounds were screened at 1 μM or lower, using 1% DMSO as vehicle. Biochemical assay results are presented as the percent inhibition of specific binding in Table 9.

[2] = target: T2, human recombinant adrenergic α2B receptor (Homo sapiens, UniProt P18089); assay: Adrenergic α2B radioligand binding ([3H]Rauwolscine); settings: read-out: Inhibition of ligand binding, Adrenergic α2B
T2 construct: expressed in transfected cells; host or cells: Chinese hamster ovary (CHO-K1) cells
T2 sequence (P18089 1-450): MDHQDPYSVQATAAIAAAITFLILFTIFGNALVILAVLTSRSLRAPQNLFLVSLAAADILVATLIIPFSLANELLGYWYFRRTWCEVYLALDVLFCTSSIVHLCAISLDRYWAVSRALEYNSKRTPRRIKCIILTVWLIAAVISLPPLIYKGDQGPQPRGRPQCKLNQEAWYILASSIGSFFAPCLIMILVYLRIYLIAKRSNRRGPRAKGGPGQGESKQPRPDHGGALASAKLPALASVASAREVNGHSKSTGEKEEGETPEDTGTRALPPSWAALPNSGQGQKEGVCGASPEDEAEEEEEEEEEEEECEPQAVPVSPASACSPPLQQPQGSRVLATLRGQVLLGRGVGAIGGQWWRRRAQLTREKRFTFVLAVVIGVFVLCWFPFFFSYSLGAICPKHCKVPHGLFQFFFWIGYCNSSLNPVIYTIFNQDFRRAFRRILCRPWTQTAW
Protocol: To evaluate in radioligand binding assays the activity of compounds of the invention, human recombinant adrenergic α2B receptor expressed in Chinese hamster ovary (CHO-K1) cells (Uhlen S et al. Eur J Pharmacol. 343(1):93, 1998) in a modified Tris-HCl buffer (50 mM Tris-HCl, pH 7.4, 12.5 mM MgCl2, 1 mM EDTA, 0.2% BSA) was used. Compounds of the invention were incubated with 2.5 nM [^3H]Rauwolscine for 60 min. at 25° C. Non-specific binding was estimated in the presence of 10 μM Prozosin. Receptor proteins were filtered and washed, the filters were then counted to determine [^3H]Rauwolscine specifically bound. Compounds were screened at 1 μM or lower, using 1% DMSO as vehicle. Biochemical assay results are presented as the percent inhibition of specific binding in Table 9.

[3] = target: human dopamine D2L receptor (Homo sapiens, UniProt P14416); assay: Dopamine D2L radioligand binding ([3H]Spiperone); settings: for Inhibition of ligand binding, Dopamine D2L: 1 µM; for inhibition at 1 µM: read-out: Inhibition of ligand binding, Dopamine D2L
Source text: Non-specific binding was estimated in the presence of […] Haloperidol. Receptor proteins were filtered and washed, the filters were then counted to determine [^3H]Spiperone specifically bound. […] Biochemical assay results are presented as the percent inhibition of specific binding in Table 9.

[4] = target: T3, human recombinant serotonin (5-Hydroxytryptamine) 5-HT2A receptor (Homo sapiens, UniProt P28223); assay: Serotonin 5-HT2A radioligand binding ([3H]Ketanserin); settings: read-out: Inhibition of ligand binding, Serotonin 5-HT2A (percent inhibition of specific binding), compound at 1 μM
T3 construct: expressed in transfected cells; host or cells: Chinese hamster ovary (CHO-K1) cells
Protocol: Compounds of the invention were incubated with 0.5 nM [^3H]Ketanserin for 60 min. at 25° C. Non-specific binding was estimated in the presence of 1 μM Mianserin. Receptor proteins were filtered and washed, the filters were then counted to determine [^3H]Ketanserin specifically bound.

[5] = target: T4, human recombinant serotonin (5-Hydroxytryptamine) 5-HT6 receptor (Homo sapiens, UniProt P50406); assay: Serotonin 5-HT6 radioligand binding ([3H]LSD); settings: compound at 1 μM; read-out: Inhibition of ligand binding, Serotonin 5-HT6 (percent inhibition of specific binding)
T4 construct: expressed in transfected cells; host or cells: human HeLa cells
Protocol: Compounds of the invention were incubated with 1.5 nM [3H]Lysergic acid diethylamide (LSD) for 120 min. at 37° C. […] Receptor proteins were filtered and washed, the filters were then counted to determine [3H]LSD specifically bound. Compounds were screened at 1 μM or lower, using 1% DMSO as vehicle. Biochemical assay results are presented as the percent inhibition of specific binding in Table 10.

[6] = percent inhibition of specific binding, compound at 1 μM

T3 sequence (P28223 whole entry): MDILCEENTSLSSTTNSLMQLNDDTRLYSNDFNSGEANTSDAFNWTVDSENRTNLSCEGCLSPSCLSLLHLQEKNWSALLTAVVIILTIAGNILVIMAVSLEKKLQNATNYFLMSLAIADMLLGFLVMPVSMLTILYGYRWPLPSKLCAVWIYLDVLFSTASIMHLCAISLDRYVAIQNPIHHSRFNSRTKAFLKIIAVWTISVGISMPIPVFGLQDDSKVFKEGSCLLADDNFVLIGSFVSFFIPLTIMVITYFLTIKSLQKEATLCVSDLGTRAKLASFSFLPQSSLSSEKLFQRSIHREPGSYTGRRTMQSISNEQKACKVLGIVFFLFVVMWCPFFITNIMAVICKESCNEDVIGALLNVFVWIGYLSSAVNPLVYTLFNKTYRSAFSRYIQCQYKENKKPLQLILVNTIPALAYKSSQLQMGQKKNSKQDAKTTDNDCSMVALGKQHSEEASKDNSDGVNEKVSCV
T4 sequence (P50406 whole entry): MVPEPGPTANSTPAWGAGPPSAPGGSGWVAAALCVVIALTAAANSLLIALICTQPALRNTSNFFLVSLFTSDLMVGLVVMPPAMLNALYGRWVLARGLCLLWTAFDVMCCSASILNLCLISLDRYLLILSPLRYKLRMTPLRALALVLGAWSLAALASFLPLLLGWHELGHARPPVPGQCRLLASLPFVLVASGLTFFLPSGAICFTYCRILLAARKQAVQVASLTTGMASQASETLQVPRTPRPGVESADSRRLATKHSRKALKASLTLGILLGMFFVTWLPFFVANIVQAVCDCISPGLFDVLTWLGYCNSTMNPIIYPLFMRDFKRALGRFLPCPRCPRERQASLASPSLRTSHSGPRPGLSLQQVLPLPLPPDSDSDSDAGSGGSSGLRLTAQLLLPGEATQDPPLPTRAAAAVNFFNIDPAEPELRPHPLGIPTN
Chain of human dopamine D2L receptor (P14416 whole entry): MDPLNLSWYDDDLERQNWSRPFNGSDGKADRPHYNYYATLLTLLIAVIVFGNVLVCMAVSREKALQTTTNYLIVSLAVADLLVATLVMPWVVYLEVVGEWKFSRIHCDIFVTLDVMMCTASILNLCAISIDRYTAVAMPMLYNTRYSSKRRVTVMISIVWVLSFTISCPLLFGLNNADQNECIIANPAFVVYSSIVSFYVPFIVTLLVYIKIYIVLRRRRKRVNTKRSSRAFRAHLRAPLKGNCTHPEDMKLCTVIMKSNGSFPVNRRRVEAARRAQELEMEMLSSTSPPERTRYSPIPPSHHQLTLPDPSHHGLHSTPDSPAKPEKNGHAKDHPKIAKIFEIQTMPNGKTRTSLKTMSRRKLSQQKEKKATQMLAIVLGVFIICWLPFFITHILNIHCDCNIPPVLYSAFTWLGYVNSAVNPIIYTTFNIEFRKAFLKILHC

| SMILES | inhibition at 1 µM [1, 6] | inhibition at 1 µM [2, 6] | Inhibition of ligand binding, Dopamine D2L [3, 6] | inhibition at 1 µM [3, 6] | inhibition at 1 µM [4] | inhibition at 1 µM [5] | inhibition at 1 µM [1] | inhibition at 1 µM [2] | inhibition at 1 µM [3] |
| --- | --- | --- | --- | --- | --- | --- | --- | --- | --- |
| COc1ccc(/C(C)=C/n2c3c(c4cc(Cl)ccc42)CN(C)CC3)cc1F [Compound 93, (E)-8-chloro-5-(2-(3-fluoro-4-methoxyphenyl)prop-1-enyl)-2,3,4,5-tetrahydro-2-methyl-1H-pyrido[4,3-b]indole] | 94% | 108% | 97% | 85% | 100% | 93% | – | – | – |
| COc1ccc(C(C)(O)Cn2c3c(c4cc(Cl)ccc42)CN(C)CC3)cc1 (stereo not drawn) [Compound 57, 1-(8-chloro-1,2,3,4-tetrahydro-2-methylpyrido[4,3-b]indol-5-yl)-2-(4-methoxyphenyl)propan-2-ol] | 70% | 108% | – | 22% | 95% | 68% | – | – | – |
| Cc1ccc2c(c1)c1c(n2/C=C/c2ccc(C)nc2)CCN(C)C1 [compound 95, 2,3,4,5-tetrahydro-2,8-dimethyl-5-((E)-2-(6-methylpyridin-3-yl)vinyl)-1H-pyrido[4,3-b]indole] | 95% | 103% | – | 17% | 91% | 71% | – | – | – |
| COc1ccc(C(C)(O)Cn2c3c(c4cc(Cl)ccc42)CN(C)CC3)cc1F (stereo not drawn) [Compound 59, 1-(8-chloro-1,2,3,4-tetrahydro-2-methylpyrido[4,3-b]indol-5-yl)-2-(3-fluoro-4-methoxyphenyl)propan-2-ol] | 83% | 95% | – | 17% | 96% | 54% | – | – | – |
| Cc1ccc2c(c1)c1c(n2CC(O)c2cccnc2)CCN(C)C1 (stereo not drawn) [Compound 54, 2-(1,2,3,4-tetrahydro-2,8-dimethylpyrido[4,3-b]indol-5-yl)-1-(pyridin-3-yl)ethanol] | 39% | 103% | – | -4% | 42% | 31% | – | – | – |
| C/C(=C\n1c2c(c3cc(Cl)ccc31)CN(C)CC2)c1ccc(C)nc1 [Compound 89, (E)-8-chloro-2,3,4,5-tetrahydro-2-methyl-5-(2-(6-methylpyridin-3-yl)prop-1-enyl)-1H-pyrido[4,3-b]indole] | 97% | 108% | – | 68% | 101% | 67% | – | – | – |
| CN1CCc2c(c3cc(Cl)ccc3n2CC(C)(O)c2ccncc2)C1 (stereo not drawn) [Compound 63, 1-(8-chloro-1,2,3,4-tetrahydro-2-methylpyrido[4,3-b]indol-5-yl)-2-(pyridin-4-yl)propan-2-ol] | 74% | 101% | – | 17% | 95% | 73% | – | – | – |
| Cc1ccc2c(c1)c1c(n2CC(C)(O)c2ccc(F)cc2)CCN(C)C1 (stereo not drawn) [Compound 55, 2-(4-fluorophenyl)-1-(1,2,3,4-tetrahydro-2,8-dimethylpyrido[4,3-b]indol-5-yl)propan-2-ol] | 85% | 108% | – | 34% | 100% | – | – | – | – |
| COc1ccc(/C(C)=C/n2c3c(c4cc(Cl)ccc42)CN(C)CC3)cc1 [Compound 92, (E)-8-chloro-2,3,4,5-tetrahydro-5-(2-(4-methoxyphenyl)prop-1-enyl)-2-methyl-1H-pyrido[4,3-b]indole] | 89% | 103% | 97% | 83% | 100% | 97% | – | – | – |
| Cc1ccc2c(c1)c1c(n2CC(C)(O)c2cccnc2)CCN(C)C1 (stereo not drawn) [Compound 60, 1-(1,2,3,4-tetrahydro-2,8-dimethylpyrido[4,3-b]indol-5-yl)-2-(pyridin-3-yl)propan-2-ol] | 81% | 96% | – | 6% | 78% | 50% | – | – | – |
| Cc1ccc2c(c1)c1c(n2CC(C)(O)c2ccncc2)CCN(C)C1 (stereo not drawn) [Compound 62, 1-(1,2,3,4-tetrahydro-2,8-dimethylpyrido[4,3-b]indol-5-yl)-2-(pyridin-4-yl)propan-2-ol] | 57% | 103% | – | 7% | 88% | 43% | – | – | – |
| Cc1ccc(/C=C/Cn2c3c(c4cc(Cl)ccc42)CN(C)CC3)cn1 [Compound 125, 8-chloro-2,3,4,5-tetrahydro-2-methyl-5-((E)-3-(6-methylpyridin-3-yl)allyl)-1H-pyrido[4,3-b]indole] | 76% | 110% | – | 20% | 97% | 62% | – | – | – |
| Cc1ccc(C(C)(O)Cn2c3c(c4cc(Cl)ccc42)CN(C)CC3)cn1 (stereo not drawn) [Compound 47, 1-(8-chloro-1,2,3,4-tetrahydro-2-methylpyrido[4,3-b]indol-5-yl)-2-(6-methylpyridin-3-yl)propan-2-ol] | 81% | 106% | – | 7% | 84% | 39% | – | – | – |
| CN1CCc2c(c3cc(Cl)ccc3n2C/C=C/c2ccc(F)cc2)C1 [Compound 126, 5-(4-fluorocinnamyl)-8-chloro-2,3,4,5-tetrahydro-2-methyl-1H-pyrido[4,3-b]indole] | 87% | 116% | – | 84% | 102% | 95% | – | – | – |
| Cc1ccc2[nH]c3c(c2c1)CN(C)CC3 [Compound 3, 2,8-Dimethyl-2,3,4,5-tetrahydro-1H-pyrido[4,3-b]indole] | – | – | – | – | – | 58% | 58% | 91% | 14% |
